According to patent publication US20250353827A1, “INDOLINE DERIVATIVES AS SEROTONERGIC AGENTS USEFUL FOR THE TREATMENT OF DISORDERS RELATED THERETO” (MINDSET PHARMA INC., priority 2022, published 2025):
Several values for one entry are separate records, joined by “and”; a condition that tells them apart may be missing. Equal values may be shown once.

How the values were obtained:
[1] = molecular target: T1, human 5-HT2A (h5-HT2A) receptor (Homo sapiens, UniProt P28223); test: FLIPR assay, human 5-HT2A receptor under agonist mode; format: cell-based; settings: 5-HT2A (FLIPR); for RFU@10 μM: RFU=Fmax−Fmin; for EC50: read-out: EC50
T1 construct: expressed in transfected cells; cultured under G418 and hygromycin B selection
T1 sequence (P28223 whole entry): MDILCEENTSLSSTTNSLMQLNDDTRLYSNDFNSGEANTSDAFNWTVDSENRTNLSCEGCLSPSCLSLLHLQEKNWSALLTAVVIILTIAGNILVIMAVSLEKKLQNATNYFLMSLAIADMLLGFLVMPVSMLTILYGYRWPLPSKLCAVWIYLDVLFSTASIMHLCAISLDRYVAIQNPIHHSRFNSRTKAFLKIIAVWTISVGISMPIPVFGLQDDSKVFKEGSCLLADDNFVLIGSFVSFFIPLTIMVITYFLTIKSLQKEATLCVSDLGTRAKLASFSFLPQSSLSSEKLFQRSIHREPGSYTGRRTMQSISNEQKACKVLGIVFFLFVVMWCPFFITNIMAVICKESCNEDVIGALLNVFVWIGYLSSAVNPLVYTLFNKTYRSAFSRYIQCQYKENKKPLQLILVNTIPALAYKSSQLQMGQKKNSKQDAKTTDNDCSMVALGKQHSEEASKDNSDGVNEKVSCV
Protocol: I. Assessment of the Effect of Exemplary Compounds of Formula I Targeting on Human 5-HT2A (h5-HT2A) Receptor Under Agonist Mode
• 1. Cells were cultured in cell culture medium (DMEM containing 10% FBS, 1×penicillin-streptomycin 300 μg/ml G418 and 100 μg/ml hygromycin B) at 37° C., 5% (v/v) CO2. • 2. One day before the assays, the cells were detached using TrypLE™ Express and cells were counted using cell counter. Only cells with >85% viability were used for the assay. • 3. 20000 cells/well were seeded in 30 μl/well culture medium to a 384-well cell plate and cells were incubated overnight at 37° C., 5% (v/v) CO2. • 4. On the assay day, 2×dye solution was prepared following the manual of the FLIPR® Calcium 6 Assay Kit: i. The dye was diluted with assay buffer (20 mM HEPES in 1× HBSS, PH7.4); ii. Probenecid was added to the final concentration of 5 mM; iii. Vortex vigorously for 1-2 minutes. • 5. Medium was removed from cell plate by flicking the cell plate on towel papers. • 6. 10 μl of assay buffer and 10 μl of 2×dye solution was added to each well of the cell plate. • 7. The cell plate was placed on plate shaker, the plate was agitated at 600 rpm for 2 minutes. The plate was incubated at 37° C. for 2 hours followed by additional 15-minute incubation at 25° C. • 8. 3×compound in assay buffer was prepared: a. Reference compounds were diluted to required concentration with DMSO. The compounds were added to a 384-well compound plate; b. Serial dilutions were performed; c. 10 mM test compounds were added to the compound plate, and 3-fold serial dilutions were performed. d. Transfer 60 nl/well of compounds from source plate to a 384-well compound plate (Corning, 3657) by using an Echo; e. Add 20 μl/well assay buffer to the compound plate; f. Mix the plate on plate shaker for 2 mins; • 9. The cell plate, compound plate and tips were put into FLIPR, 10 μl of 3× compound was transferred to the cell plate per well with FLIPR.
• i. The normalized fluorescence reading (RFU) was calculated as shown below, where Fmax and Fmin stand for maximum and minimum of calcium signal during defined time window: RFU=Fmax−Fmin. • ii. Calculate the percentage activation using following equation:
[formula] • Iii. Calculate EC50 by fitting % activation against log of compound concentrations with Hill equation using XLfit.
Exemplary compounds of Formula I were evaluated functionally using FLIPR assay for their effect on h5-HT2A receptor under agonist mode.

Male, C57BL/6J mice = test: Mouse head twitch; format: in vivo; settings: for head twitches (mean): counted over 1 hr, male C57BL/6J mice
Protocol: The effect of different doses of representative compounds of Formula I were evaluated on head-twitch response (HTR) and other behavioural responses as behavior-based models of psychedelic activity.
Male, C57BL/6J mice (body weight range 20-30 g) were dosed with the appropriate dose of test article, and following a 1-minute pre-treatment time, placed in individual observation chambers. Animals were visually assessed for the incidence head twitches continuously over a 1 hr period. Head twitches were defined as a rapid jerk of the head which was not elicited by an external tactile stimulus (Come and Pickering, Psychopharmacologia, 1967, 11(1): 65-78). Each head twitch was individually counted by a trained observer, and the data was expressed as the mean±SEM of 6-10 mice per group. Mice were used in a single experiment only.
The head twitch response of exemplary compound II-1 (1-30 mg/kg SC) was compared to 5-MeO DMT and psilocybin (FIG. 1, Table 6).

[2] = Liver microsomes stability, human; settings: for Predicted hepatic CL: human liver microsomes; for Remaining Percentage / CLint scaled at 2 μM / half-life at 2 μM / microsomal CLint at 2 μM: human; for CLint scaled at 2 μM / half-life at 2 μM / microsomal CLint at 2 μM: pooled liver microsomes
Protocol: (§1) The objective of this study was to estimate in vitro metabolic stability of representative compounds of the application in pooled human and male mouse liver microsomes. The concentrations of parent compounds in reaction systems were evaluated by LC-MS/MS for estimating the stability in pooled human and male mouse liver microsomes. The in vitro intrinsic clearances of test compounds were determined as well.
(§2) A master solution in the “Incubation Plate” containing phosphate buffer, ultra-pure H2O, MgCl2 solution and liver microsomes was made according to Table 3. The mixture was pre-warmed at 37° C. water bath for 5 minutes.
(§3) 40 μL of 10 mM NADPH solution was added to each well. The final concentration of NADPH was 1 mM. The negative control samples were prepared by replacing NADPH with 40 μL of ultra-pure H2O. Samples were prepared in duplicate. Negative controls were prepared in singlet.
(§4) The reaction was started with the addition of 4 μL of 200 μM test compounds or control compounds to each master solution to get the final concentration of 2 μM. This study was performed in duplicate.
(§5) Aliquots of 50 μL were taken from the reaction solution at 0, 15, 30, 45 and 60 minutes. The reaction solutions were stopped by the addition of 4 volumes of cold methanol with IS (100 nM alprazolam, 200 nM imipramine, 200 nM labetalol and 2 μM ketoprofen). Samples were centrifuged at 3,220 g for 40 minutes. Aliquot of 90 μL of the supernatant was mixed with 90 μL of ultra-pure H2O and then was used for LC-MS/MS analysis.
(§6) LC/MS analysis was performed for all samples from this study using a Shimadzu liquid chromatograph separation system equipped with degasser DGU-20A5R; solvent delivery unit LC-30AD; system controller SIL-30AC; column oven CTO-30A; CTC Analytics HTC PAL System. Mass spectrometric analysis was performed using a Triple Quad™ 5500 instrument.
(§7) All calculations were carried out using Microsoft Excel. Peak areas were determined from extracted ion chromatograms. The slope value, k, was determined by linear regression of the natural logarithm of the remaining percentage of the parent drug vs. incubation time curve.
(§8) The in vitro half-life (in vitro t1/2) was determined from the slope value:
(§9) Conversion of the in vitro t1/2 (min) into the in vitro intrinsic clearance (in vitro CLint, in μL/min/mg proteins) was done using the following equation (mean of duplicate determinations): […]

[3] = Liver microsomes stability, rat; settings: rat; for CLint scaled at 2 μM / Predicted hepatic CL / half-life at 2 μM / microsomal CLint at 2 μM: liver microsomes
[4] = Liver microsomes stability, mouse; settings: for CLint scaled at 2 μM / half-life at 2 μM / microsomal CLint at 2 μM: male, microsomes; for CLint scaled at 2 μM / half-life at 2 μM / microsomal CLint at 2 μM / Remaining Percentage: mouse; for Predicted hepatic CL: mouse liver microsomes
Protocol: as §1, §2, §3, §4, §5, §6, §7, §8, §9

COc1ccc2c(c1)C(CCN(C)C)CN2 (stereo not shown) [II-1, 2-(5-Methoxyindolin-3-yl)-N,N-dimethylethan-1-amine]
RFU@10 μM [1]: 1813 and 1180
EC50 [1]: 202 nM and 274 nM
head twitches (mean) (Male, C57BL/6J mice; 0.3 mg/kg SC): 3.2
head twitches (mean) (Male, C57BL/6J mice; 1 mg/kg SC): 3.8
head twitches (mean) (Male, C57BL/6J mice; 3 mg/kg SC): 3.6
head twitches (mean) (Male, C57BL/6J mice; 10 mg/kg SC): 2.3
mice with some 5-HT syndrome associated behaviours (Male, C57BL/6J mice; 30 mg/kg SC, 2/5 mice): 40%
head twitches (mean) (Male, C57BL/6J mice; 30 mg/kg SC): 4.2
head twitch response (in words) (Male, C57BL/6J mice; SC, dose range as in the sentence): only a modest head twitch response
other behavioural signs (locomotion, core body temperature, 5-HT syndrome) in words (Male, C57BL/6J mice; SC, psilocybin 3 and 10 mg/kg, 5-MeO DMT 3-30 mg/kg, II-1 0.3-30 mg/kg): No overt signs of hypolocomotion or 5-HT syndrome
peak head twitch response (Male, C57BL/6J mice; at 30 mg/kg SC, mean±SEM): 4.2±0.7 twitches
Predicted hepatic CL [2]: 14.13 mL/min/kg
Remaining Percentage ([2]; With NADPH, 0 min): 100.00%
Remaining Percentage ([2]; With NADPH, 30 min): 65.37%
Remaining Percentage ([2]; With NADPH, 60 min): 34.47%
Remaining Percentage ([2]; Without NADPH, 0 min): 100.00%
Remaining Percentage ([2]; Without NADPH, 30 min): 89.91%
Remaining Percentage ([2]; Without NADPH, 60 min): 83.49%
CLint scaled at 2 μM [2]: 44.5 mL/min/kg
half-life at 2 μM [2]: 39 min
microsomal CLint at 2 μM [2]: 35.5 µL/min/mg
Remaining Percentage ([3]; With NADPH, 0 min): 100.00%
Remaining Percentage ([3]; With NADPH, 30 min): 20.42%
Remaining Percentage ([3]; With NADPH, 60 min): 5.99%
Remaining Percentage ([3]; Without NADPH, 0 min): 100.00%
Remaining Percentage ([3]; Without NADPH, 30 min): 86.92%
Remaining Percentage ([3]; Without NADPH, 60 min): 87.15%
CLint scaled at 2 μM [3]: 168 mL/min/kg
Predicted hepatic CL [3]: 41.56 mL/min/kg
half-life at 2 μM [3]: 14.8 min
microsomal CLint at 2 μM [3]: 93.8 µL/min/mg
CLint scaled at 2 μM [4]: 368 mL/min/kg
half-life at 2 μM [4]: 16.5 min
microsomal CLint at 2 μM [4]: 84.2 µL/min/mg
Predicted hepatic CL [4]: 72.33 mL/min/kg
Remaining Percentage ([4]; With NADPH, 0 min): 100.00%
Remaining Percentage ([4]; With NADPH, 30 min): 31.98%
Remaining Percentage ([4]; With NADPH, 60 min): 8.00%
Remaining Percentage ([4]; Without NADPH, 0 min): 100.00%
Remaining Percentage ([4]; Without NADPH, 30 min): 117.83%
Remaining Percentage ([4]; Without NADPH, 60 min): 113.85%

CN(C)CCC1CNc2ccccc21 (stereo not shown) [II-2, 2-(Indolin-3-yl)-N,N-dimethylethan-1-amine]
RFU@10 μM [1]: 544
EC50 [1]: 1230 nM
Predicted hepatic CL [2]: 9.09 mL/min/kg
Remaining Percentage ([2]; With NADPH, 0 min): 100.00%
Remaining Percentage ([2]; With NADPH, 30 min): 87.48%
Remaining Percentage ([2]; With NADPH, 60 min): 67.85%
Remaining Percentage ([2]; Without NADPH, 0 min): 100.00%
Remaining Percentage ([2]; Without NADPH, 30 min): 100.69%
Remaining Percentage ([2]; Without NADPH, 60 min): 86.47%
CLint scaled at 2 μM [2]: 16.2 mL/min/kg
half-life at 2 μM [2]: 107 min
microsomal CLint at 2 μM [2]: 12.9 µL/min/mg
Remaining Percentage ([3]; With NADPH, 0 min): 100.00%
Remaining Percentage ([3]; With NADPH, 30 min): 26.32%
Remaining Percentage ([3]; With NADPH, 60 min): 10.29%
Remaining Percentage ([3]; Without NADPH, 0 min): 100.00%
Remaining Percentage ([3]; Without NADPH, 30 min): 92.41%
Remaining Percentage ([3]; Without NADPH, 60 min): 83.54%
CLint scaled at 2 μM [3]: 136 mL/min/kg
Predicted hepatic CL [3]: 39.25 mL/min/kg
half-life at 2 μM [3]: 18.3 min
microsomal CLint at 2 μM [3]: 75.8 µL/min/mg
CLint scaled at 2 μM [4]: 165 mL/min/kg
half-life at 2 μM [4]: 36.7 min
microsomal CLint at 2 μM [4]: 37.7 µL/min/mg
Predicted hepatic CL [4]: 58.25 mL/min/kg
Remaining Percentage ([4]; With NADPH, 0 min): 100.00%
Remaining Percentage ([4]; With NADPH, 30 min): 57.37%
Remaining Percentage ([4]; With NADPH, 60 min): 32.23%
Remaining Percentage ([4]; Without NADPH, 0 min): 100.00%
Remaining Percentage ([4]; Without NADPH, 30 min): 99.08%
Remaining Percentage ([4]; Without NADPH, 60 min): 86.24%
